From patent US20200171042A1, “BRAIN-PENETRANT CHROMONE OXIME DERIVATIVE FOR THE THERAPY OF LEVODOPA-INDUCED DYSKINESIA” (Prexton Therapeutics SA, priority 2015, published 2020)

Assays:
[1] = biological target: human mGluR4 (Homo sapiens, UniProt Q14833); experiment: calcium assay, agonistic and/or positive allosteric modulator activity; assay type: cell-based; settings: read-out: EC50 (corresponding to pEC50) (converted)
Description: The compound of formula (I) according to the invention (i.e., PXT002331) was tested for its agonistic and/or positive allosteric modulator activity on human mGluR4 using the calcium assay described in Example 171 of WO 2011/051478.

[2] = phase I metabolic stability, CL (h); assay type: in vitro ADME; settings: human; h of CL (h/r)
Description: (§1) The in vitro ADME profile of PXT002331 was also very similar with reference to phase I metabolic stability: CL (h/r): 55/101 μl/min/mg protein and intestinal absorption: CaCo-2 (A-B, pgp): 4.11 .10-6 cm/s, no efflux.

[3] = phase I metabolic stability, CL (r); assay type: in vitro ADME; settings: rat; r of CL (h/r)
Description: as §1

[4] = intestinal absorption CaCo-2 (A-B, pgp); assay type: in vitro ADME; settings: human, Caco-2; A-B
Description: as §1

[5] = tested on: CaCo-2; experiment: intestinal absorption CaCo-2 (A-B, pgp); assay type: in vitro ADME; settings: pgp
Description: as §1

[6] = plasma protein binding; assay type: in vitro ADME; settings: read-out: plasma protein binding, free fraction
[7] = solubility in water; assay type: physicochemical; settings: as hydrochloride salt
[8] = in vivo pharmacokinetics in rats (plasma and brain exposure); design: species or system male Sprague-Dawley rats; settings: rat
Description: PXT002331 and PXT001858 were administered per os (p.o.) at 10 mg/kg to male Sprague-Dawley rats. Volume of administration was 10 ml/kg. In parallel, PXT002331 was also administered intravenously (i.v.) at 1 mg/kg, with a volume of administration of 2 ml/kg. Blood samples (200 μl) were collected at time ranging from 15 minutes to 24 hours for the p.o. administration and from 5 minutes to 24 hours for the i.v. administration in ice-cold tubes containing 0.2% K2EDTA. Tubes were centrifuged at 10,000 rpm for 5 minutes at 4° C. The plasma (supernatant) was separated in another tube and stored at −80° C. until analysis. Two groups of 3 animals were used for each route of administration: in one group, blood samples were collected to determine the kinetics of plasma exposure over a 24-hour period, and in the second group, blood and brain were collected at one terminal time point (0.5, 1.0, 1.5, 2.0, 4.0 hours) to determine the kinetics of brain exposure and brain/plasma ratio.
The respective parent compound (free base) was analysed in plasma samples and in brain homogenate using a LC-MS/MS method. Concentrations are expressed in ng/ml of plasma or in ng/g of brain tissue.

[9] = tested on: UGT (UDP-Glucuronosyl transferase); experiment: in vitro glucuronidation in rat liver microsomes; assay type: in vitro ADME; settings: in vitro in the presence of UGT
Description: Despite their similar oral absorption, PXT002331 has a higher brain/plasma ratio (6.5 versus 2.0 at T=1.5 h; see FIG. 4) leading to a 3-fold improvement in the brain AUC when compared to PXT001858. A posteriori, one potential hypothesis might rely on the difference of phase II conjugation in the intestine and liver during oral absorption. […] Nonetheless, this difference observed in vitro cannot by itself explain the unexpected advantageous PK results obtained with PXT002331. The results obtained in these experiments are furthermore summarized in Tables 1 to 3 below and in FIGS. 1 to 4.

[10] = tested on: MPTP macaque model of Parkinson's disease; experiment: MPTP macaque model of advanced stages of PD; assay type: in vivo, Macaca fascicularis
Description: The anti-parkinsonian efficacy of the compound of formula (I) according to the present invention (i.e., PXT002331) was evaluated in the 1-methyl-4-phenyl-1,2,3,6-tetrahydropyridine (MPTP) macaque model of Parkinson's disease (using macaques of the species Macaca fascicularis), which reproduces most of the clinical and pathological hallmarks of Parkinson's disease and is considered a “gold standard” (see Porras G et al., Cold Spring Harb Perspect Med., 2(3):a009308, 2012 and references cited therein for a general description of the MPTP model). […] The anti-parkinsonian efficacy of PXT002331 (25 mg/kg) was further evaluated in combination with low (suboptimal) doses of L-dopa (levodopa; 4-9 mg/kg) (see FIGS. 5B and 5C). In this model, levodopa methyl ester was administered sub-cutaneously together with a fixed dose of benserazide (50 mg total), a peripherally-acting levodopa decarboxylase inhibitor. Doses of PXT002331 were orally administered twice a day during 4 days, and assessment of parkinsonian scores took place at day 4 (between 1 and 2 h after L-dopa administration, i.e., between 2 and 3 h after PXT002331 administration). […] The results of a dose-response evaluation of the combination of PXT002331 (at doses from 2 mg/kg to 100 mg/kg) with L-dopa (low dose) are shown in FIG. 5D (the assessment of parkinsonian scores took place at day 4).

[11] = tested on: CLD MPTP macaque model of early-stage PD; experiment: chronic low doses of MPTP (CLD MPTP) macaque model of early-stage PD; assay type: in vivo, Macaca fascicularis
Description: In this model, levodopa was administered orally as Madopar which contains benserazide hydrochloride (4:1 ratio of levodopa:benserazide), a peripherally-acting levodopa decarboxylase inhibitor. In this experiment, each monkey was equipped with a detector of movements and signals were collected with 24 light beams and a video track recorder in order to discriminate all types of movements. The movements of each monkey were quantified every 5 min using computer-based activity monitors. Total values are presented over 4 hours.

[12] = tested on: CLD MPTP macaque model; experiment: Variable Delayed Response (VDR) task, cognitive performance of CLD MPTP monkeys; assay type: in vivo, Macaca fascicularis
Description: Monkeys that receive chronic low doses of MPTP administration (CLD MPTP macaque model) develop cognitive impairment, as measured in the Variable Delayed Response (VDR) task. It was therefore decided to evaluate the cognitive impact of PXT002331 in these animals, in order to assess potential side effects on cognitive symptoms.

[13] = tested on: MPTP macaque model of L-DOPA-induced dyskinesia; experiment: MPTP macaque model of L-DOPA-induced dyskinesia (LID); assay type: in vivo
Description: Like PD patients, MPTP macaques experience side effects of their long-term L-DOPA therapy, including L-DOPA-induced dyskinesia (LID). This was the case with the MPTP macaques that were at an advanced stage of parkinsonism used in this experiment. PXT002331 was tested in these monkeys, using the dose of 25 mg/kg in combination with L-DOPA.
Moreover, this was observed as early as day 1, which corresponds to an acute administration of PXT002331, and is maintained after a sub-chronic treatment (twice daily for 8 consecutive days). Importantly, the efficacy of L-DOPA for reducing parkinsonian symptoms (tremor, posture, mobility) was maintained in association with PXT002331 dose, as shown in FIG. 9B.

[14] = tested on: MPTP macaques; experiment: general behavior, adverse events in MPTP macaques; assay type: in vivo, Macaca fascicularis; settings: alone or with L-DOPA, even at high doses
Description: Adverse events and side effects of PXT002331 were analyzed during each study performed in macaques (see Example 3).

[15] = p.o. 10 mg/kg, vehicle Tween-80/Ethanol/30% HPBCD (2/10/88)

Sequence of human mGluR4 (Q14833 33-912): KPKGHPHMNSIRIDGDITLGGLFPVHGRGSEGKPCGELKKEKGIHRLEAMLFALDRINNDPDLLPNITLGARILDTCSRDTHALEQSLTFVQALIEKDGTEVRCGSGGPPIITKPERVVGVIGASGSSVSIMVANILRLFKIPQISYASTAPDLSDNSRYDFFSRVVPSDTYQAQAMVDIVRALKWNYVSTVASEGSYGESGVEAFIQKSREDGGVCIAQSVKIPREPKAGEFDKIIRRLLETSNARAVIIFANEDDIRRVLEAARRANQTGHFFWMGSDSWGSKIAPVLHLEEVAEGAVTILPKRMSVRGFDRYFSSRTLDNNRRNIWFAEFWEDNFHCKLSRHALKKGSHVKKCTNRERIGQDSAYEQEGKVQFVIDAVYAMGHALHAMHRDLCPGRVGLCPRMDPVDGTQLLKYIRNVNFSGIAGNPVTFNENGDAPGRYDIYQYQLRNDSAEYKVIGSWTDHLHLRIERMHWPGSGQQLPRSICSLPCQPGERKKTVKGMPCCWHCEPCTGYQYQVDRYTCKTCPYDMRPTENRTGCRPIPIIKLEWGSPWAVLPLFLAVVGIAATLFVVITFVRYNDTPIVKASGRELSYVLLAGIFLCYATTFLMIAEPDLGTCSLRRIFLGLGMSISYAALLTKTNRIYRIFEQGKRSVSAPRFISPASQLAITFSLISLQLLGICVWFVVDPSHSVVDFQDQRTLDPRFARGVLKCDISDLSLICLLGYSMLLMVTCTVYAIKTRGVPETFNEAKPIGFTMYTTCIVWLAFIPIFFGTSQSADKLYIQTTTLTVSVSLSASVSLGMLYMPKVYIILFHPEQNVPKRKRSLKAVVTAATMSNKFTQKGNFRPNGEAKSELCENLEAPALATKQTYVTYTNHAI

O/N=c1\cc(-c2cc3sccc3cn2)oc2ccc(CCCN3CCOCC3)cc12 [PXT002331, 6-(3-morpholin-4-yl-propyl)-2-(thieno[3,2-c]pyridin-6-yl)-4H-chromen-4-one oxime]
EC50 [1]: ~76 nM | microsomal CLint [2]: 55 µL/min/mg | microsomal CLint [3]: 101 µL/min/mg | Papp A→B [4]: 4.11 ×10⁻⁶ cm/s | CaCo-2 efflux [5]: no efflux | fraction unbound [6]: < 0.01 | solubility [7]: > 10000 µg/mL | Kp at 1.5 h ([8]; male, Sprague-Dawley, brain, oral 10 mg/kg, T = 1.5 h, read-out: Brain/Plasma ratio (T = 1.5 h)): 6.5 | bioavailability ([8]; male, Sprague-Dawley, plasma, oral, p.o. 10 mg/kg vs i.v. 1 mg/kg): 39% | AUC(0-inf) ([8]; male, Sprague-Dawley, plasma, oral 10 mg/kg): 432 ng·h/mL | Brain AUC inf ([8]; oral 10 mg/kg): 2713 ng·h/g | Cmax (Brain) ([8]; oral 10 mg/kg): 818 ng/G tissue | improvement in brain AUC compared to PXT001858 ([8]; oral 10 mg/kg): 3 fold | plasma exposure AUC relative to PXT001858 [8, 15]: 1.1 fold | plasma exposure Cmax relative to PXT001858 [8, 15]: 0.7 fold | level of glucuronidation compared to PXT001858 [9]: much lower level of glucuronidation | robustness: monkeys improving in parkinsonian score ([10]; PXT002331 25 mg/kg + low dose L-dopa, day 4): all treated monkeys showed a significant improvement in parkinsonian score | parkinsonian score versus L-dopa (suboptimal dose) alone ([10]; PXT002331 25 mg/kg p.o. twice a day 4 days + suboptimal L-dopa 4-9 mg/kg, day 4): considerable improvement in parkinsonian score | anti-parkinsonian effect, dose-response evaluation ([10]; PXT002331 2 to 100 mg/kg oral + L-dopa (low dose), day 4): highly potent anti-parkinsonian effect | induction of dyskinesia ([10]; PXT002331 alone, any of the doses tested, more advanced stages of PD): did not induce dyskinesia | change of dyskinesia by PXT002331 treatment ([10]; added to sub-optimal doses of L-DOPA, any dose tested): not increased | anti-parkinsonian activity (parkinsonian score) ([10]; stand-alone treatment, p.o. twice a day for 4 days, score at day 4 over 2 h, n=7): potent anti-parkinsonian activity | induction of dyskinesia ([11]; CLD MPTP macaques, PXT002331 alone or in combination with any doses of L-DOPA tested): no induction of dyskinesia | robustness: monkeys responding in locomotor activity ([11]; PXT002331 25 mg/kg + L-dopa): each and every monkey included in the study responded | locomotor activity ([11]; PXT002331 25 mg/kg oral + low or optimal dose of L-dopa (Madopar), total over 4 hours, N=5): significant improvement in locomotor activity | induction of dyskinesia ([11]; PXT002331 25 to 100 mg/kg + optimal (high) dose of L-dopa): without inducing dyskinesia | disability score ([11]; increasing doses of PXT002331 + L-dopa (optimal dose)): improvement in the disability score | worsening of cognitive performances in VDR task ([12]; PXT002331 25 mg/kg alone or in combination with L-DOPA, N=4): none of the treatments with PXT002331, alone or in combination with L-DOPA, induced any worsening of the cognitive performances | omission rate in VDR task, change on adding PXT002331 ([12]; one out of four animals, PXT002331 25 mg/kg added to optimal dose of L-DOPA): decreased by half | dyskinesia (mean dyskinesia score over 2 hours) ([13]; PXT002331 25 mg/kg + L-DOPA, 30 min before or same time, day 1 and day 8 (twice daily)): clear reduction of dyskinesia | robustness: dyskinetic monkeys responding ([13]; PXT002331 25 mg/kg + L-DOPA, N=4 dyskinetic animals): each and every dyskinetic monkey included in the study responded to treatment | efficacy of L-DOPA for reducing parkinsonian symptoms (tremor, posture, mobility) ([13]; in association with PXT002331 25 mg/kg): maintained | adverse change in behavior (circling, excitement, lethargy, sleepiness) [14]: never induced any apparent adverse change in behavior

O/N=c1\cc(-c2cc3sccc3cn2)oc2ccc(OCCN3CCOCC3)cc12 [PXT001858, reference compound]
Brain AUC inf ([8]; oral 10 mg/kg): 838 ng·h/g | Cmax (Brain) ([8]; oral 10 mg/kg): 521 ng/G tissue

N[C@@H](Cc1ccc(O)c(O)c1)C(=O)O [L-DOPA, L-3,4-dihydroxyphenylalanine, reference compound]
dyskinesia (mean dyskinesia score) ([10]; highest doses of L-DOPA): very mild | dyskinesia ([10]; sub-optimal doses of L-DOPA): weak or absent | induction of dyskinesia ([11]; L-DOPA alone, model of early stage PD): did not induce dyskinesia | omissions in VDR task ([12]; one out of four animals, optimal dose of L-DOPA alone): ~100%
